Consider 79 compounds from the METLIN SMRT retention time set (Domingo-Almenara et al. 2019).

The series can be described thus: gradient 5% acetonitrile 3 min, to 50% in 2 min, to 85% in 15 min, held 3 min, 100 µL/min. The conditions noted are these: column: Zorbax Extend-C18 2.1 x 50 mm; eluents: water / acetonitrile, 0.1% formic acid. In short, it runs like this:
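In both positive and negative ionization mode, a quadrupole time-of-flight mass spectrometer coupled to HPLC analyzed pure standards run in mixtures of ~100 molecules. The Zorbax Extend-C18 column (2.1 × 50 mm, 1.8 μm) was operated at 100 μL/min with water and acetonitrile, each containing 0.1% formic acid. The dead volume was 40 μL and the dwell volume 900 μL. Retention time came from adduct peaks that were computationally picked and individually inspected by hand.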
`CCCCOC(=O)c1ccc(Nc2c(C(=O)N(CC)CC)cnc3nc(C)ccc23)cc1` registered an RP-LC retention time of 720 s.

`O=C(NCCC1=CCCCC1)c1ccc(CN2CCN(C3CCCC3)C(=O)C2=O)cc1` showed an RP-LC retention time of 836 s.

Compound `CC(C)OC(=O)Cn1nc2c(-c3nc(-c4ccc(Cl)cc4)no3)cccn2c1=O` displayed an RP-LC retention time of 1040 s.

In turn, `Cc1ccsc1C(=O)N1CCC2(CC1)NC(=O)N(Cc1ccc(Cl)cc1)C2=O` gave an RP-LC retention time of 844 s.

Compound `CCCc1cc(C2CCCN2C(=O)Cc2ccc(OC)cc2)no1` (centres undefined) came in with an RP-LC retention time of 909 s.

Compound `CCc1ccc(S(=O)(=O)N2CCCC2c2nc(-c3cccc(Cl)c3)no2)cc1` (centres undefined) yielded an RP-LC retention time of 1300 s.

The compound `Cc1ccc(C)c(NC(=O)Cn2cccc2-c2nnc(C3CCC3)o2)c1` registered an RP-LC retention time of 977 s.

Regarding `COc1ccc(-c2nnc(COc3ccc(NC(=O)c4cnccn4)cc3)o2)cc1`, the RP-LC retention time was found to be 800 s.

On to `CC(C)CCNc1ccc2nncn2n1`, for which the RP-LC retention time worked out at 786 s.

In the case of `COc1ccc(-c2c(C)noc2NC(C)=O)cc1S(=O)(=O)Nc1ccc(Br)cc1F`, the RP-LC retention time came to 817 s.

The compound `CCNc1cc(N2CCC(CCC(=O)N3CCC(COC)CC3)CC2)ncn1` came in with an RP-LC retention time of 631 s.

The compound `O=C(COc1ccc(F)cc1)N1CCN2CCS(=O)(=O)N(C3CC3)C(=O)C2C1` (centres undefined) showed an RP-LC retention time of 773 s.

Compound `CC(C)n1c(CCNC(=O)c2ccccc2F)nc2cccnc21` registered an RP-LC retention time of 652 s.

Compound `O=C(NCCN1CCc2ccccc2C1)c1cccc(N2CCNC(c3ccccc3)C2)n1` (centres undefined) had an RP-LC retention time of 576 s.

The compound `CNC(=O)C1CCCN(c2nc3ncn(CC(=O)NCc4ccc5c(c4)OCO5)c(=O)c3s2)C1` (centres undefined) had an RP-LC retention time of 618 s.

`O=C(Cn1nc2c(N3CCCCCC3)nccn2c1=O)Nc1cccc(Cl)c1F`: the RP-LC retention time was 750 s.

For the compound `CCN1C(=O)NC(c2ccccc2Cl)C2=C1CN(C(C(=O)N1CCCC1)C(C)C)C2=O` (centres undefined), the RP-LC retention time was 680 s.

The compound `Cn1ncc(N2CCCC(C(=O)N3CCc4ccccc4C3)C2)cc1=O` (centres undefined) returned an RP-LC retention time of 732 s.

Take `COc1ccc(OC)c(NS(=O)(=O)c2ccc3c(c2)C(=O)N(C)c2ncccc2O3)c1`: the RP-LC retention time is 872 s.

Compound `COc1ccc(CN2N=C(C(=O)N3CCCC3)S(=O)(=O)c3ccccc32)cc1F` showed an RP-LC retention time of 725 s.

`CC1(C(=O)NCc2ccccc2)Cn2cnc(C(=O)NCc3ccccc3Cl)c2C(=O)N1C1CC1` (centres undefined): the RP-LC retention time was 816 s.

`OCc1cc2c(cn1)[nH]c1ccccc12`: the RP-LC retention time worked out at 637 s.

Compound `COc1ccc(NC(=O)c2cnc(N3CCN(c4ccc(F)cc4)CC3)nc2N)cc1` showed an RP-LC retention time of 776 s.

`COc1ccccc1-c1nc(Cn2nnc(-c3nc(-c4ccc(F)cc4)no3)c2C)c(C)o1` had an RP-LC retention time of 1160 s.

Regarding `CCN1C(=O)c2cc(C(=O)Nc3cccc(Cl)c3)nn2CC1(C)C(=O)NC1CCCC1` (centres undefined), the RP-LC retention time was determined as 887 s.

In turn, `COc1ccc(-c2ccc(=O)n(Cc3nc(-c4ccccn4)no3)n2)cc1` displayed an RP-LC retention time of 780 s.

For `Cc1ccc2[nH]cc(CCNC(=O)CCc3ccccc3)c2c1`, the RP-LC retention time came to 880 s.

For `CSc1ccc(NC(=O)COc2ccccc2)nn1`, the RP-LC retention time is 764 s.

With `COc1ccc(-c2nc3ccc(C4=NNC(=O)CC4C)cc3[nH]2)cc1` (centres undefined), the RP-LC retention time amounted to 654 s.

Regarding `CCOc1ccc(NC(=O)C2CCN(S(=O)(=O)c3ccc4c(c3)sc(=O)n4C)CC2)cc1`, the RP-LC retention time stood at 798 s.

In turn, `CCCN1N=C(C(=O)N2CCC(C)CC2)S(=O)(=O)c2ccc(C)cc21` displayed an RP-LC retention time of 993 s.

Compound `Fc1ccc(-c2nc3cnc(Br)cn3c2Nc2ccc3c(c2)OCCO3)cc1` registered an RP-LC retention time of 961 s.

For the compound `COc1ccc(CNC(=O)c2nc(N3CCSCC3)c3cnn(C)c3n2)cc1`, the RP-LC retention time turned out to be 775 s.

Compound `O=c1c(=O)n(-c2ccccc2)ccn1Cc1nc(-c2ccc(Br)cc2)no1` showed an RP-LC retention time of 901 s.

As for `O=C(NCC1CCN(C(=O)Oc2ccccc2)CC1)C(=O)Nc1ccc2c(c1)OCCO2`, the RP-LC retention time worked out at 853 s.

In the case of `COc1ccc(-c2csc(Nc3ccccn3)n2)cc1OC`, the RP-LC retention time worked out at 761 s.

As for `CCCNC(=O)N1CCCN(Cc2ccc3c(c2)OCO3)c2ccccc21`, the RP-LC retention time is 924 s.

The compound `O=C(O)c1cccc2c1CCN2C(=O)Nc1ccc(F)cc1` registered an RP-LC retention time of 782 s.

Compound `CC(C)N1CCN(C(=O)c2ccc(CN3CCN(Cc4ccccc4)C(=O)C3=O)cc2)CC1` showed an RP-LC retention time of 610 s.

`COc1nn(C)cc1C(=O)NCc1cc(-c2cccs2)on1` returned an RP-LC retention time of 662 s.

For `COCC1CN(S(=O)(=O)Cc2ccccc2F)CC12CCNCC2` (centres undefined), the RP-LC retention time stood at 575 s.

`COc1ccc(NS(=O)(=O)c2cc(-c3[nH]ncc3C(=O)N3CCCC3)oc2C)cc1F` gave an RP-LC retention time of 701 s.

Compound `CCN(Cc1ccccc1)C(=O)Cn1cnc2onc(C)c2c1=O` showed an RP-LC retention time of 802 s.

`COCC(=O)N1C[C@@H]2C(=O)N(CCc3ccccc3)C(=O)[C@@H]2C1` came in with an RP-LC retention time of 662 s.

On to `CCn1cnc(S(=O)(=O)N2CCC(C(=O)NCc3cccc(C)c3)CC2)c1`, for which the RP-LC retention time was determined as 721 s.

For `COc1ccc(-c2nc3cc(C)ccn3c2NC(=O)c2cc(Br)ccc2Cl)cc1`, the RP-LC retention time was determined as 715 s.

For `CCOC(=O)c1cccc(Nc2c(C(=O)N3CCCC(C)C3)cnc3nc(C)ccc23)c1` (centres undefined), the RP-LC retention time was found to be 653 s.

The compound `CCn1c(C)cc(O)c(C(c2ccccc2[N+](=O)[O-])c2c(O)cc(C)n(CC)c2=O)c1=O` yielded an RP-LC retention time of 884 s.

Regarding `Cc1nc2cc(-c3noc(-c4ccccc4Br)n3)ccc2n(C)c1=O`, the RP-LC retention time came out at 948 s.

Turning to `CCN1C(=O)COc2ccc(-c3noc(COc4ccc(F)cc4)n3)cc21`, the RP-LC retention time amounted to 1030 s.

`CC(C)(C)C(=O)NC1CCN(C(=O)c2ccccc2)C1` (centres undefined) registered an RP-LC retention time of 676 s.

In turn, `CN(Cc1ccco1)C(=O)C1CCN(S(=O)(=O)c2ccc3c(c2)sc(=O)n3C)CC1` registered an RP-LC retention time of 803 s.

Compound `CCn1cc(C2=CCN(S(=O)(=O)c3cccc(C)c3)CC2)c2cccnc21` came in with an RP-LC retention time of 1040 s.

For `O=C(NCc1cccc(Cl)c1)C1CCN(c2cncnc2N2CCOCC2)CC1`, the RP-LC retention time amounted to 647 s.

`COc1ccc(OC)c(NC(=O)CN2C(=O)CCc3cc(Br)ccc32)c1` had an RP-LC retention time of 962 s.

As for `O=C1C2N=NN(Cc3nc(-c4ccccc4Br)no3)C2C(=O)N1c1ccc2c(c1)CCC2` (centres undefined), the RP-LC retention time came out at 1060 s.

`CCC(=O)N1CCCn2nc(-c3ccc(F)cc3)cc2C1` registered an RP-LC retention time of 741 s.

Regarding `Cn1ncc2c3ccccc3n(CC(=O)NCCCN3CCCCCC3)c2c1=O`, the RP-LC retention time stood at 561 s.

For `Cc1ccc(N(C(=O)Cc2ccccc2)C2C=CS(=O)(=O)C2)cc1Cl` (centres undefined), the RP-LC retention time was determined as 869 s.

`COc1cccc(-c2cc3c(=O)n(Cc4nc(-c5ccccc5)no4)ccn3n2)c1` registered an RP-LC retention time of 1000 s.

The compound `CC(C)n1cnc(S(=O)(=O)N2CCC(C(=O)NCc3ccc(Br)cc3)CC2)c1` showed an RP-LC retention time of 782 s.

For the compound `CS(=O)(=O)N1CCCCC1C(=O)Nc1nnc(-c2ccco2)o1` (centres undefined), the RP-LC retention time amounted to 641 s.

`CCN(CC)C(=O)Cn1nc2nc(Nc3ccc(F)cc3)ccn2c1=O` displayed an RP-LC retention time of 669 s.

In turn, `COc1ccc(Br)c2c1-c1nc(NC(=O)c3ccc(F)cc3)sc1C2` had an RP-LC retention time of 1170 s.

In turn, `COc1ccc(NC(=O)C2c3ccccc3C(=O)N3CCC(C)CC23)c(OC)c1` (centres undefined) showed an RP-LC retention time of 867 s.

`Cc1ccc(-c2nnc(N3CCC(C(=O)NCCC4=CCCCC4)CC3)o2)cc1` displayed an RP-LC retention time of 990 s.

As for `Cc1ccccc1NS(=O)(=O)c1c(C)c(-c2nnc(C3CCC3)o2)n(C)c1C`, the RP-LC retention time turned out to be 966 s.

`Cc1ccc(C)c(N2CCN(C(=O)C3CCN(S(=O)(=O)c4cccc5nsnc45)CC3)CC2)c1` showed an RP-LC retention time of 1070 s.

For the compound `CCN1CCc2nc(NC(=O)C3CCN(S(=O)(=O)c4ccc(Cl)s4)CC3)sc2C1`, the RP-LC retention time was determined as 656 s.

Compound `CCOc1ccccc1C(=O)N1CCC2(CC1)NC(=O)c1cc(C)ccc1N2CC` gave an RP-LC retention time of 861 s.

`COc1ccc(-c2cc(C(F)F)nn2-c2ccc(S(N)(=O)=O)cc2)cc1F` had an RP-LC retention time of 997 s.

On to `O=C(Nc1ccccc1)N1CC(c2nc(CCOCC3CC3)no2)C1`, for which the RP-LC retention time is 792 s.

`Cn1cc(CC(=O)NCc2cccc(F)c2)c2cccnc21` came in with an RP-LC retention time of 669 s.

`CCCN(CC1CCOC1)S(=O)(=O)c1ccc(C)c(F)c1` (centres undefined) returned an RP-LC retention time of 878 s.

Consider `CC1(C(=O)Nc2ccc(F)c(F)c2)CCCCC(=O)N1` (centres undefined), for which the RP-LC retention time came out at 715 s.

In the case of `CC(=O)Nc1onc(C)c1-c1ccc(C)c(S(=O)(=O)Nc2ccc(F)cc2C)c1`, the RP-LC retention time amounted to 806 s.

For `CCN1CCn2cc(S(=O)(=O)Nc3cc(OC)ccc3OC)cc2C1=O`, the RP-LC retention time is 719 s.

For the compound `O=C(Nc1cnc(-c2ccccc2)nc1)c1ccc(Br)o1`, the RP-LC retention time turned out to be 979 s.

Consider `CCN1C(=O)C(C)(C(=O)NCc2ccc(Br)cc2)Oc2cccnc21` (centres undefined), for which the RP-LC retention time was determined as 916 s.
